US20220378747A1, “TOPICAL COMPOSITION FOR TREATING SKIN WOUNDS” (priority 2021, published 2022)

Assays:
Type in all cases: physicochemical
[1] = 0.1M Zinc Gluconate and 0.1M Amino Acid Solutions: pH and precipitation on adjusting pH to 7.0; conditions: for pH: 0.1M zinc gluconate and 0.1M amino acid solution, before adjustment; for Observations: 0.1M zinc gluconate and 0.1M amino acid, pH adjusted to 7.0 with NaOH
From the text: There are seven standard amino acids with uncharged polar R groups which can hydrogen-bond with water. […] The basic amino acids, in which the R groups have a net positive charge at pH 7.0, all have six carbon atoms. […] Histidine is the only amino acid having buffering capacity near pH 7.0 with a pK′ of the R group near 7.0. All of the basic amino acids as shown in the following table are suitable for use in the present invention: […]

[2] = pH of Zinc Solutions
From the text: Other minerals which may be administered in the subject form include calcium, iron, magnesium, manganese and the like.

[3] = pH of 2M amino acid and 1M zinc gluconate solution in water (Example 11); conditions: 2M amino acid and 1M zinc gluconate dissolved in water, before neutralization
Procedure: A formulation in powder form containing zinc and lysine which when dissolved in water forms a neutral solution was prepared as follows: Two M lysine and 1M zinc gluconate was dissolved in water to form a solution having a pH 7.4 and was neutralized to pH 7 with HCl. After the zinc and amino solution was neutralized, it was frozen immediately in liquid nitrogen. The frozen solution was then lyophilized for 24 hours to remove water.

Compound	pH [1]	Observations [1]	acidity of zinc gluconate neutralized by adding the amino acid and adjusting the pH to 7.0 [1]	other results
CC(C)C[C@H](N)C(=O)O [Leucine]	5.0	pH adjusted to 7.0 with NaOH precipitates		
CC(=O)[O-].CC(=O)[O-].[Zn+2] [Zinc acetate]				pH ([2]; 0.1M solution): 6.7; pH ([2]; 0.2M solution): 6.6
N[C@@H](Cc1c[nH]c2ccccc12)C(=O)O [Tryptophan]		Not soluble		
N[C@@H](CS)C(=O)O [Cysteine]		precipitates	cannot be made	
CSCC[C@H](N)C(=O)O [Methionine]		pH adjusted to 7.0 with NaOH precipitates		
N[C@@H](CO)C(=O)O [Serine]		does not precipitate	can be neutralized	
C[C@H](N)C(=O)O [Alanine]	5.1		can be neutralized	
CC[C@H](C)[C@H](N)C(=O)O [Isoleucine]	5.1		can be neutralized	
NC(=O)CC[C@H](N)C(=O)O [Glutamine]	5.0		can be neutralized	
N[C@@H](Cc1ccccc1)C(=O)O [Phenylalanine]	4.9	precipitates		
[Cl-].[Cl-].[Zn+2] [Zinc chloride]				pH ([2]; 0.1M solution): 6.4; pH ([2]; 0.2M solution): 6.2
NCCCC[C@H](N)C(=O)O [Lysine]	7.4		can be neutralized	pH of solution [3]: 7.4
CC(C)[C@H](N)C(=O)O [Valine]	5.1		can be neutralized	
C[C@@H](O)[C@H](N)C(=O)O [Threonine]		does not precipitate	can be neutralized	
N[C@@H](Cc1c[nH]cn1)C(=O)O [Histidine]			can be neutralized	pH of solution [3]: 5.5
O=S(=O)([O-])[O-].[Zn+2] [Zinc sulfate]				pH ([2]; 0.1M solution): 5.7; pH ([2]; 0.2M solution): 5.45
Zinc gluconate				neutralization with sodium hydroxide ([1]; zinc salt alone, without amino acid): cannot be neutralized with sodium hydroxide without precipitating the mixture; pH ([2]; 0.1M solution): 5.85; pH ([2]; 0.2M solution): 5.65
NC(=O)C[C@H](N)C(=O)O [Asparagine]	4.8		can be neutralized	
